Laboratory results from ChEMBL document CHEMBL1201862, “PubChem BioAssay data set” (2004).
The source made the active and inactive calls.

Experiments:
SN12K1 = assay: cells; assay type: functional; settings: Homo sapiens
P388/ADR = assay: cells; assay type: functional; settings: Mus musculus
P388 = assay: cells; assay type: functional; settings: Mus musculus
[1] = growth suppression of PTEN-null colon cells, dose response, cell-based, HCT116 PTEN knockout (AID 1047); assay type: functional;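 also: HCT116 colon tumor cells with PTEN knocked out; cells exposed to compound for 60 hours before readout; potency for loss of cell viability measured by luminescence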
[2] = growth suppression of beta-catenin-knockout colon cells, dose response, cell-based, HCT116, human colon tumor (AID 1045); assay type: functional;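 also: HCT116 colon tumor cells with beta catenin knocked out; cells exposed to compound for 60 hours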
[3] = inhibitors of firefly luciferase expression or activity, dose response, H4 neuroglioma cells, luminescence (AID 1990); assay type: functional, cell-based
cells = assay type: functional
[4] = inhibitors of SNCA 5'UTR-driven reporter translation, confirmation, H4 neuroglioma cells, luminescence (AID 1988); assay type: functional, cell-based
[5] = Luminescence Cell-Based Dose Response HTS to Identify Inhibitors of 5'UTR Stem-Loop Driven Prion Protein mRNA Translation in H4 Neuroglioblastoma Cells. [Related pubchem assays: 1827 (Project Summary), 1813 (Primary HTS)]; assay type: functional
Cytochrome P450 2C9 = Cytochrome P450 2C9 (Homo sapiens, UniProt P11712)
[6] = Shn3 3'UTR reporter inhibitors, dose response, cell-based, Clone20 osteoblasts, firefly luciferase, cherry-picked (AID 624132); assay type: functional;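 also: firefly luciferase luminescence from reporter carrying the Shn3 3'UTR in osteoblasts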
[7] = control 3'UTR Renilla luciferase suppression, dose response, counter-screen for Shn3 inhibitor project, cell-based, Clone20-Shn3RL, cherry-picked (AID 624133); assay type: functional
BJ [8] = assay: cytotoxicity toward BJ-TERT fibroblasts, dose response, cell-based, RAS-independent, luminescence (AID 1933); assay type: functional; settings: Homo sapiens
[9] = HepG2 cell cytotoxicity, dose response, cytotoxicity control for Shn3 inhibitor project, CellTiter-Glo, cherry-picked (AID 624134); assay type: functional, cell-based
BJ [10] = assay: cytotoxicity toward BJ-TERT-LT-ST fibroblasts, dose response, cell-based, RAS-independent, luminescence (AID 1935); assay type: functional; settings: Homo sapiens;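 also: BJ fibroblasts immortalized with TERT plus LT and ST oncogenes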
BJ [11] = assay: cells; assay type: functional, cell-based; settings: Homo sapiens
[12] = molecular target: T1, Ubiquitin-conjugating enzyme E2 N (Homo sapiens, UniProt P61088); assay type: functional;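 also: Dose-response confirmation in a TR-FRET assay detecting UBC13-driven polyubiquitin chain formation, inhibition measured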
T1 sequence (P61088 whole entry): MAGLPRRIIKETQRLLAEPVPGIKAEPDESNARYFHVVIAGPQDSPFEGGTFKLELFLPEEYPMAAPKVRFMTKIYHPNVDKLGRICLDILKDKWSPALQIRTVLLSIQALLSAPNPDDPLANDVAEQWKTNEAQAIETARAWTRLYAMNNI

[13] = cytotoxicity toward DRD oncogenic fibroblasts, dose response, cell-based, non-viral oncogenic, luminescence (AID 1934); assay type: functional; settings: Homo sapiens
Cytochrome P450 3A4 = Cytochrome P450 3A4 (Homo sapiens, UniProt P08684);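 also: CYP3A4 tested as one member of a cytochrome P450 panel screen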
Genome polyprotein = Genome polyprotein (dengue virus type 2, UniProt P29990); assay: Dengue-2 NS5 methyltransferase inhibitors, primary screen, biochemical, confirmation dose response (AID 588689); assay type: functional
[14] = HEp-2 cell cytotoxicity, dose response, cytotoxicity control for RSV inhibitor project, HTS (AID 2410); assay type: functional; settings: human respiratory syncytial virus
[15] = Luminescence Cell-Based Dose Retest to Confirm Inhibitors of Cancer Stem Cells. [Related pubchem assays (depositor defined):AID2717, AID2721]; assay type: functional; settings: Homo sapiens
Aminopeptidase N = molecular target: T2, Aminopeptidase N (Plasmodium falciparum FcB1/Columbia, UniProt O96935); assay: P. falciparum M1AAP inhibitors, biochemical, fluorogenic H-Leu-NHMec substrate, 1536-well (AID 1445); design: species or system Plasmodium falciparum 3D7, 3D7
T2 sequence (O96935 whole entry): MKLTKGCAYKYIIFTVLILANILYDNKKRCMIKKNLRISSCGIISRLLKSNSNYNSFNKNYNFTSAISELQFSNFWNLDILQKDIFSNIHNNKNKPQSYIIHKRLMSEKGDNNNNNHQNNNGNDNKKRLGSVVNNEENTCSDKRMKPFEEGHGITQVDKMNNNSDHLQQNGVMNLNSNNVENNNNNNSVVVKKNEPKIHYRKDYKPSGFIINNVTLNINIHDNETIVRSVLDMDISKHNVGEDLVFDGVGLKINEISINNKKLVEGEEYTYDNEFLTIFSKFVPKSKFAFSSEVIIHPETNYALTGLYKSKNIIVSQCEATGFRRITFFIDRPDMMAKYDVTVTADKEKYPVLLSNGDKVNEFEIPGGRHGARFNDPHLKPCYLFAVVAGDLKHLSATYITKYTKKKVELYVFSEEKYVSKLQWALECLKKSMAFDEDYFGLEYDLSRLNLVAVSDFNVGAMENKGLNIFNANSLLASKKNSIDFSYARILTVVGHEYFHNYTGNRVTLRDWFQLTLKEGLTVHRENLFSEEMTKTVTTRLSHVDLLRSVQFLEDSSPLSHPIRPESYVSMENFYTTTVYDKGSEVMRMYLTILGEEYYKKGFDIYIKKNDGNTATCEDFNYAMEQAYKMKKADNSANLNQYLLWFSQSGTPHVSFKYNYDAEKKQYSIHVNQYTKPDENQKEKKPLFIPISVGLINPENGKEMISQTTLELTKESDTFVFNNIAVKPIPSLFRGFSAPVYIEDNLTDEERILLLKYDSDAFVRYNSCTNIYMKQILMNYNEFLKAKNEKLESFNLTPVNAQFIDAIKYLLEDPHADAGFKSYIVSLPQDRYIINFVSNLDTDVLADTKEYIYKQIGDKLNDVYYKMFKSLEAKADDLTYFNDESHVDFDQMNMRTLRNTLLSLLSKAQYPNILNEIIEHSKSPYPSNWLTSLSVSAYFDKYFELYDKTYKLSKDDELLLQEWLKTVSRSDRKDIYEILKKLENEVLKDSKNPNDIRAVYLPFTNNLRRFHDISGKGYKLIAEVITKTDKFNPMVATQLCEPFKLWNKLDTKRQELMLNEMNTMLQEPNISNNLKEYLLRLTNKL

Cytochrome P450 2D6 = Cytochrome P450 2D6 (Homo sapiens, UniProt P10635);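 also: CYP2D6 member of a cytochrome P450 panel assay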
Chain of Cytochrome P450 2D6 (P10635 whole entry): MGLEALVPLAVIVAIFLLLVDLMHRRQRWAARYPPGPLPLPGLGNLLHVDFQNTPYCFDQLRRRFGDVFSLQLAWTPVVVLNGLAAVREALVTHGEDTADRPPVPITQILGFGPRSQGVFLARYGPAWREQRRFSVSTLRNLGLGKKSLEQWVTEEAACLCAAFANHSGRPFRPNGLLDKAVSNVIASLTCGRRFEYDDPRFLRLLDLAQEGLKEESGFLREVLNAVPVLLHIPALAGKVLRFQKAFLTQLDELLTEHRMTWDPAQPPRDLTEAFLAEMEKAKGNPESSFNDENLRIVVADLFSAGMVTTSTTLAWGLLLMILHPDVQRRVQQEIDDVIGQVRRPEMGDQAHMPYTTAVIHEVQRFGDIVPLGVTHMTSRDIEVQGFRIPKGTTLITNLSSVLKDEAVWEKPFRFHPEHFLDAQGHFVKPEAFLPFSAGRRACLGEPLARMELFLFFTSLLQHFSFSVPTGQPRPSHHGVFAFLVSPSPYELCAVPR

Chain of Cytochrome P450 2C9 (P11712 whole entry): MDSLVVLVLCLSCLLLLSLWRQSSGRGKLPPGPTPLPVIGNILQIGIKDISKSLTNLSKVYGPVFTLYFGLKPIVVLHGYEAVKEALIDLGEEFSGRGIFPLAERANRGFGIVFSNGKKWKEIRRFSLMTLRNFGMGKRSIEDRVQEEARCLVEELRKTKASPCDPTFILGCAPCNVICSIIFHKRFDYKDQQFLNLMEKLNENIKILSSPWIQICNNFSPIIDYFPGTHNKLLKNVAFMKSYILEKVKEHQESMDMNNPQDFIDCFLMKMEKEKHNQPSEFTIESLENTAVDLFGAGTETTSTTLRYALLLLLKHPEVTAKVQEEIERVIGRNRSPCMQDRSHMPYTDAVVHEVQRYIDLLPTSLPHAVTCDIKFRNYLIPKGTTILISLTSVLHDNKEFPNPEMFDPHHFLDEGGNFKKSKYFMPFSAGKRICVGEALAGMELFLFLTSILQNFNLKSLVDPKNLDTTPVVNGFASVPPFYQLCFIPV
Chain of Cytochrome P450 3A4 (P08684 whole entry): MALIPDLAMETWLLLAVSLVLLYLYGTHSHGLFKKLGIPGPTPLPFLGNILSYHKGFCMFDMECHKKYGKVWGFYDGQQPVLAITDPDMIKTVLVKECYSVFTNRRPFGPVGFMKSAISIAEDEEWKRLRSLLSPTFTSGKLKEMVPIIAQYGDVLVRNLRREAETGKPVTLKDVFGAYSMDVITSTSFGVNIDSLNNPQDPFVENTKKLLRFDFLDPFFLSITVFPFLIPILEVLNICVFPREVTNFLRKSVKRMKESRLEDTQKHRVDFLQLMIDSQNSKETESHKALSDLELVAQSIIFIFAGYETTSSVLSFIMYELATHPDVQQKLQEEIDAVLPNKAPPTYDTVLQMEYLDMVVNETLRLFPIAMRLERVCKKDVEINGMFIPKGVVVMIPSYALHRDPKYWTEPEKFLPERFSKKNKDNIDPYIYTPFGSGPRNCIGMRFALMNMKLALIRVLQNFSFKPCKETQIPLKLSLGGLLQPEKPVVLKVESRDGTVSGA
Chain of Genome polyprotein (P29990 2492-3391 limits assumed): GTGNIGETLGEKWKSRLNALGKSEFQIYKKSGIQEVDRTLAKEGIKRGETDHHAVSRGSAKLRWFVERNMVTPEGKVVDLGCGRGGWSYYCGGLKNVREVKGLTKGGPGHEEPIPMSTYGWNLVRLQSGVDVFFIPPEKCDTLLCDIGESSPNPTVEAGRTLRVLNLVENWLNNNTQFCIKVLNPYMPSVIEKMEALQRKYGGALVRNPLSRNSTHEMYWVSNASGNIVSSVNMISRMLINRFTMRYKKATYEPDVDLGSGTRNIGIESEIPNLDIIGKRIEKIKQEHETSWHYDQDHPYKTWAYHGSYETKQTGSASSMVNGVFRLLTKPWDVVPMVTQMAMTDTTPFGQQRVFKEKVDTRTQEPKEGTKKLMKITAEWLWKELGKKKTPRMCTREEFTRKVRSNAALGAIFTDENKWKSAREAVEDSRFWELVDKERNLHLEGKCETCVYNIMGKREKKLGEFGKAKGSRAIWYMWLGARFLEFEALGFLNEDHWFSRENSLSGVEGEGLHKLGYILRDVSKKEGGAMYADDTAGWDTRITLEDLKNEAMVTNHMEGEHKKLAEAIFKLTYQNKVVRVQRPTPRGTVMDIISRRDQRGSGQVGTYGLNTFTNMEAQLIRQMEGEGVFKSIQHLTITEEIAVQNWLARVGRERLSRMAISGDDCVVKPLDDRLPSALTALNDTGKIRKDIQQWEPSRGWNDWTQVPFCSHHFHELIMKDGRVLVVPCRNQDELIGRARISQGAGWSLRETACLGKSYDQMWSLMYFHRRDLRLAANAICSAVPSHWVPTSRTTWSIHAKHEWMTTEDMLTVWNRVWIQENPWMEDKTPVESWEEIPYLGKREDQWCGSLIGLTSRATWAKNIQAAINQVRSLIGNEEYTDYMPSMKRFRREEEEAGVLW

CN1CCN(c2ccc3[nH]c(-c4ccc5[nH]c(-c6ccc(O)cc6)nc5c4)nc3c2)CC1
GI50 (SN12K1): 27 µM (inactive)
GI50 (P388/ADR): 53.1 µM (inactive)
GI50 (P388): 7.94 µM (inactive)

CC(C)(C)S(=O)(=O)c1cnc2c(-c3ccc(Cl)cc3)cnn2c1N
EC50 [1]: 10.3 µM (active)
EC50 [2]: 11.8 µM (active)

Cc1ccccc1Cn1cc(NC(=O)c2noc(C(C)C)c2[N+](=O)[O-])cn1
EC50 [3]: > 120 µM (not active)
IC50 (cells): 7.8 µM (active)
EC50 [4]: > 120 µM (not active)
EC50 [5]: > 120 µM (not active)

COc1ccccc1CC(=O)O/N=C(\N)Cc1cccc2ccccc12
AC50 (Cytochrome P450 2C9): inconclusive

COc1ccc(-c2noc(CCC(=O)NCCCN3CCC(Cc4ccccc4)CC3)n2)cc1
AC50 [6]: 4.03 µM (active)
AC50 [7]: 20.7 µM (active)
EC50 (BJ [8]): 23.2 µM (active)
AC50 [9]: 30.4 µM (active)
EC50 (BJ [10]): > 150 µM (not active)
EC50 (BJ [11]): > 150 µM (not active)
IC50 [12]: > 20 µM (inactive)
EC50 [13]: 18.5 µM (active)

O=C(CCc1ccccc1)NNC(=O)C1CCCCC1
AC50 (Cytochrome P450 2C9): inconclusive

COC(=O)c1ccccc1NC(=O)c1ccc(Cn2cc(Cl)cn2)o1
AC50 (Cytochrome P450 3A4): 10 µM (inconclusive)
AC50 (Cytochrome P450 2C9): inconclusive

CCc1ccc([C@@H]2CC=C(C(=O)O)[C@H](c3ccc(Cl)cc3)N2S(=O)(=O)c2ccc(C)cc2)cc1
IC50 (Genome polyprotein): 40.3 µM (active)
CC50 [14]: 11.6 µM (active)
AC50 [15]: 7.7 µM (active)

CSc1ncc(Cl)c(C(=O)C(C#N)c2nc3c(C)cc(C)cc3c(=O)[nH]2)n1 (configuration not stated)
IC50 (Aminopeptidase N): 84.5 µM (active)

CN(C)CCCNc1oc(/C=C/c2ccccc2)nc1C#N
IC50 (Aminopeptidase N): 45.3 µM (active)

CCCc1cc2c(cc1NC(=O)c1ccccc1Cl)OCO2
AC50 (Cytochrome P450 2D6): 28.2 µM (inconclusive)
AC50 (Cytochrome P450 2C9): inconclusive

COc1cccc(/C=C(/C#N)c2ccc(F)cc2)c1OCc1cccc(C(=O)O)c1
IC50 (Aminopeptidase N): 43.6 µM (active)

CCOC(=O)CNC(=O)N1c2ccccc2Sc2ccccc21
IC50 (cells): 1.95 µM (active)

Cc1c(CNc2ccc(Cl)c(C(=O)NC(CC(=O)O)C(=O)O)c2)ccc2nc(N)nc(N)c12 (configuration not stated)
GI50 (SN12K1): 0.043 µM (active)
GI50 (P388/ADR): 0.049 µM (active)
GI50 (P388): 0.0339 µM (active)

CCCn1c(-c2ccc[nH]c2=O)nc2cc(C)c(C)cc21
IC50 (Aminopeptidase N): 23.8 µM (active)

COc1ccc(-c2[nH]c(-c3ccc4c(c3)OCO4)nc2-c2ccccc2)cc1
EC50 [1]: 15.9 µM (active)
EC50 [2]: 20.7 µM (active)

COc1cc(/C=C/C(=O)O)cc(S(=O)(=O)NCc2ccc3c(c2)OCO3)c1OC
IC50 (Aminopeptidase N): 81.9 µM (active)
